In patent US8034948B2, “Method for resolving omeprazole salts” (Universite de Rouen, priority 2007, dated 2011):
Counter-ions that a name gives are not always drawn. One block for each compound: values may come before it.

How the values were obtained:
[1] = Stability of the potassium salt solvates (ambient atmosphere / alcoholic medium with excess potassium hydroxide); type: physicochemical
Solubility measurements = type: physicochemical
Description: The solubility measurements are calculated, for a given temperature and for a given excess of potassium hydroxide, in the following way: [formula]

[2] = in an ethanol-water mixture in which ethanol predominates, with an excess of potassium hydroxide
[3] = excess of potassium hydroxide in alcohol/alcohol or alcohol/water solvent mixtures or pure alcohol

- Stability [1, 2]: stable
SMILES: COc1ccc2[nH]c([S+]([O-])Cc3ncc(C)c(OC)c3C)nc2c1 (racemic) [ethanol solvates of the potassium salt of racemic omeprazole]

- Solubility (Solubility measurements; absolute ethanol, 1.2 molar equivalents of potassium hydroxide, 26 °C): 1.3 % by weight
- Solubility (Solubility measurements; absolute ethanol, 1.2 molar equivalents of potassium hydroxide, 30 °C): 1.7 % by weight
- Solubility (Solubility measurements; absolute ethanol, 1.2 molar equivalents of potassium hydroxide, 33 °C): 2.2 % by weight
- Solubility (Solubility measurements; ethanol/water (90/10% weight/weight), 1.2 molar equivalents of potassium hydroxide, 30 °C): 25 % by weight
- Solubility (coordinates of the point L) (Solubility measurements; ethanol/water (93/7% weight/weight), 1.2 molar equivalents of potassium hydroxide, 34.4 °C): 20 % by weight
- Solubility (Solubility measurements; ethanol/water azeotropic mixture, 1.2 molar equivalents of potassium hydroxide, 29 °C): 8.7 % by weight
- Solubility (Solubility measurements; ethanol/water azeotropic mixture, 1.2 molar equivalents of potassium hydroxide, 31 °C): 9.1 % by weight
- Solubility (Solubility measurements; ethanol/water azeotropic mixture, 1.2 molar equivalents of potassium hydroxide, 35 °C): 13.7 % by weight
- Solubility of the salt (in words) (Solubility measurements; in ethanol (Example 7)): low
- Stability [1, 3]: stable
SMILES: COc1ccc2[nH]c([S+]([O-])Cc3ncc(C)c(OC)c3C)nc2c1 (racemic) [racemic mixture]

- Stability [1, 2]: stable
SMILES: COc1ccc2nc([S@@+]([O-])Cc3ncc(C)c(OC)c3C)[nH]c2c1 [(S)-omeprazole, 5-methoxy-2-[(S)-[(4-methoxy-3,5-dimethyl-2-pyridinyl)methyl]sulphinyl]-1H-benzimidazole]

- Stability [1, 3]: stable
SMILES: COc1ccc2nc([S@@+]([O-])Cc3ncc(C)c(OC)c3C)[nH]c2c1 [pure enantiomer (S)-omeprazole, 5-methoxy-2-[(S)-[(4-methoxy-3,5-dimethyl-2-pyridinyl)methyl]sulphinyl]-1H-benzimidazole]
